Like-named read-outs stand apart in the source and are kept apart here. Positions of bridges follow the written chain, without caps; N, C: chain ends. Non-standard residues stand in square brackets, D forms with d. Residues, ends and D or L forms follow the SMILES beside them. Chains are numbered I, II in the order given. *: point of attachment. PEG28 = NCCOCCOCCOCCOCCOCCOCCOCCOCCOCCOCCOCCOCCOCCOCCOCCOCCOCCOCCOCCOCCOCCOCCOCCOCCOCCOCCOCCOCCC(=O)O; Tyr(3-NO2) = N[C@@H](Cc1ccc(O)c([N+](=O)[O-])c1)C(=O)O; Biotin = O=C1N[C@H]2[C@H](CS[C@H]2CCCCC(=O)*)N1; Hyp = O=C(O)[C@@H]1C[C@@H](O)CN1; For = O=C*
Key:
integrin α3 = biological target: T1, integrin α3 (Homo sapiens, UniProt P26006); test: Displacement of anti-CD49c-PE conjugate (flow cytometry); format: binding; settings: increasing peptide concentrations, 2 mM MnCl2, 30 min on ice, flow cytometry (PE channel)
T1 construct: endogenous in cells
T1 sequence (P26006 33-872 limits assumed): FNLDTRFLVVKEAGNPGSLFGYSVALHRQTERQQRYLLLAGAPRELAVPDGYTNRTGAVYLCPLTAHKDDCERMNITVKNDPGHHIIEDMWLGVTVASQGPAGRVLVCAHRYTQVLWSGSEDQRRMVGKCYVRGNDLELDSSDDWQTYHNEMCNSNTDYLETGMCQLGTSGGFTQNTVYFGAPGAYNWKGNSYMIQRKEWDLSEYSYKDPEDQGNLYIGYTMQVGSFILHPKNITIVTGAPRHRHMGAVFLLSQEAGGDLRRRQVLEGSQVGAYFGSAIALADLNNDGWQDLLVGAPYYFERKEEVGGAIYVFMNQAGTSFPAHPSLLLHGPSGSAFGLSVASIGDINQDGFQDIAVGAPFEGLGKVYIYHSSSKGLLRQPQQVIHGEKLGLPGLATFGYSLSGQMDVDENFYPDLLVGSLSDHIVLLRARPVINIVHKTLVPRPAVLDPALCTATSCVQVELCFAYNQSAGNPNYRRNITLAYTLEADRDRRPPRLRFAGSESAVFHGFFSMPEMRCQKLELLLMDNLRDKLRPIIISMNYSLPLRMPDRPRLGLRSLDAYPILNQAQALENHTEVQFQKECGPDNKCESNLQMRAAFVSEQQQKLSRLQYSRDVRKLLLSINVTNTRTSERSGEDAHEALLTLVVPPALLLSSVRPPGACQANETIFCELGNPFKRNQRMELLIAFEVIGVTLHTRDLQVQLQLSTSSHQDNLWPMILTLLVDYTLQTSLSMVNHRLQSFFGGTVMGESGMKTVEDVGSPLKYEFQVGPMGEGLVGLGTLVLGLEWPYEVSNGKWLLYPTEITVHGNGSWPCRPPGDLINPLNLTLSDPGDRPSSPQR
T1 sequence (P26006 876-1051 partner limits assumed): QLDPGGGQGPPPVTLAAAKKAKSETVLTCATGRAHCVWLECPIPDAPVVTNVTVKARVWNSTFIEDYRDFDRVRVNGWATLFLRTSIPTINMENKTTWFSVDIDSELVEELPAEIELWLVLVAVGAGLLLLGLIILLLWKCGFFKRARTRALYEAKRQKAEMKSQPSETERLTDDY
T1 sequence (P05556 21-798 partner): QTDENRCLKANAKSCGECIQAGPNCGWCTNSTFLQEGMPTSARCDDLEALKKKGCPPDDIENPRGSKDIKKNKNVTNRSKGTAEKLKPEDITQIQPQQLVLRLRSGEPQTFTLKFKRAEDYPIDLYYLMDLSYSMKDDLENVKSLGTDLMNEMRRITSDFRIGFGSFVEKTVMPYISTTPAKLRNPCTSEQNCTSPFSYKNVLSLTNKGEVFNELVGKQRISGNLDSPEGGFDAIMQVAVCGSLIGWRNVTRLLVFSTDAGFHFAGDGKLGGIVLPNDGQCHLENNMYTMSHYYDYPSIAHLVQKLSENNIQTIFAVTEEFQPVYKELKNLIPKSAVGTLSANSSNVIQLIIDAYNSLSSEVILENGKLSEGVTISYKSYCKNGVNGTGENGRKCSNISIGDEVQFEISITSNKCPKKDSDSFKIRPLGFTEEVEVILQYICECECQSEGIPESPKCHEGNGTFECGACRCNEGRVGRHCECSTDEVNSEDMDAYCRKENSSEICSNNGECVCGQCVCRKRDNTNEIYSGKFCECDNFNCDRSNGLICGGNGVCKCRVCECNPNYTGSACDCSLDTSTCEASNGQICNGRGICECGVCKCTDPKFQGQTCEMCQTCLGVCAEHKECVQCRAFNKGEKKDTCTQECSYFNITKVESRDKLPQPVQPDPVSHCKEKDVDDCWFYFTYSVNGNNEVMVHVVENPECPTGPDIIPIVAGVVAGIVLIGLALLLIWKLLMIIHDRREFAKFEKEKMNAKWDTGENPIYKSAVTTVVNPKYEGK

A431 = test: Flow cytometry binding to cells; design: species or system Human; key to the marks not given beside the values; settings: 1 µM biotinylated peptide
PC-3 = test: Flow cytometry binding to cells; design: species or system Human; key to the marks not given beside the values; settings: 1 µM biotinylated peptide
K562 = test: Flow cytometry binding to cells; design: species or system Human; settings: 1 µM biotinylated peptide; also: key: ++: Strong binding; +: medium binding; +/−: weak binding; −: no binding
HUVEC = test: Flow cytometry binding to cells; design: species or system Human; settings: 1 µM biotinylated peptide
primary lymphocytes = test: Flow cytometry binding to cells; settings: 1 µM biotinylated peptide; also: key: ++: Strong binding; +: medium binding; +/−: weak binding; −: no binding
primary monocytes = test: Flow cytometry binding to cells; settings: 1 µM biotinylated peptide; also: key: ++: Strong binding; +: medium binding; +/−: weak binding; −: no binding
primary granulocytes = test: Flow cytometry binding to cells; settings: 1 µM biotinylated peptide; also: key: ++: Strong binding; +: medium binding; +/−: weak binding; −: no binding
[1] = system: primary macrophages 7 days; test: Flow cytometry binding to cells; settings: 1 µM biotinylated peptide; as to binding to macrophages 7 days: key: ++: strong binding; +: m edium binding; +/-: weak or heterogeneous binding; -: no binding
primary leukocytes = test: Flow cytometry binding to cells; settings: 1 µM biotinylated peptide; also: key: ++: Strong binding; +: medium binding; +/−: weak binding; −: no binding
primary macrophages 7d = test: Flow cytometry binding to cells; settings: 1 µM biotinylated peptide; also: key: ++: Strong binding; +: medium binding; +/−: weak binding; −: no binding
GPC-16 = test: Flow cytometry binding to cells; design: key to the marks not given beside the values; settings: 1 µM biotinylated peptide
U-87MG = test: Flow cytometry binding to cells; design: key: ++: strong binding; +: m edium binding; +/-: weak or heterogeneous binding; -: no binding; settings: Table S1, human, 1 µM biotinylated peptide, 2 mM MnCl2, on ice
MDA-MB-231 = test: Flow cytometry binding to cells; design: key: ++: strong binding; +: m edium binding; +/-: weak or heterogeneous binding; -: no binding; settings: Table S1, human, 1 µM biotinylated peptide, 2 mM MnCl2, on ice
HT-29 = test: Flow cytometry binding to cells; design: key: ++: strong binding; +: m edium binding; +/-: weak or heterogeneous binding; -: no binding; settings: Table S1, human, 1 µM biotinylated peptide, 2 mM MnCl2, on ice
H MC-1 = test: Flow cytometry binding to cells; settings: Table S1, human, 1 µM biotinylated peptide, 2 mM MnCl2, on ice; also: key: ++: Strong binding; +: medium binding; +/−: weak binding; −: no binding
NIH-3T3 = settings: mouse, flow cytometry, 1 µM biotinylated peptide
Description: (§26) from DSMZ or LGC and cultured according to the distributors’ guidelines. Human, murine or
(§27) guinea pig leukocytes or macrophages were isolated and cultured as described below. Cells
(§28) growing in monolayers were detached using trypsin/EDTA and then re- suspended in complete
(§29) culture medium. After washing with washing buffer (W B: 0.9% NaCl, 10 mM Hepes, pH 7.3) at
(§30) 4°C, cells were re-suspended at 2x10^6 cells/ml in peptide blocking b uf f er ( PBB: 0.9% NaCl,
(§31) 10 m M H epes, pH 7.3, 5 m M KCl , 3% BSA, 5% FCS) and incubated for 10 minutes on ice
(§32) concentration in PBB were added to equal volumes of aliquots of 1x10^5 cells, and were
(§33) incubated f or 30 min on ice with repeated shaking to keep the cells in suspension. Except
(§34) three times wit h 1 ml W B, followed by incubation with streptavidin labeled wit h PerCP-Cy5.5
(§35) (BD Biosciences, 200 µg/ml; diluted 1:400 in PBB) for 15 min on ice. After one additional
(§36) wa s h ing step with phosphate- buffered saline (PBS) at 4°C, samples were re-suspended in
(§37) PBS with Hoechst 33258 solution (0.5 µg/ml) and analyzed using a F ACS Canto system ( at
least 1x10^4 cells per sample were counted). Evaluations were performed using FloJo software.
W hole cells were gated i n a FSC/SSC plot and live gating was based on Hoechst exclusion.
After gating out debris, aggregates and dead cells, overlay histograms in the PerCP-Cy5.5
indicated cases the geometrical mean f luorescence was recorded.
For determining binding affinity, a rang e of concentrations of the biotinylated compound was
tested and the f luorescent signals were plotted against concentration. The concentration at
which half-maximum binding intensity was reached (KD) was calculated using Origin 9.0
sof tware and a “one site specif ic binding” fit (y =(Bmax* x) /(KD+x) ).
f luorescent signals were plotted against competitor concentration. The concentration at which

HeLa = system: HeLa; design: key to the marks not given beside the values; settings: Table S1; human; flow cytometry, 1 µM biotinylated peptide, 2 mM MnCl2, on ice
L-929 = settings: Table S1; mouse; flow cytometry, 1 µM biotinylated peptide, 2 mM MnCl2, on ice
Description: as §26, §27, §28, §29, §30, §31, §32, §33, §34, §35, §36, §37
(§38) least 1x10^4 cells per sample were counted). Evaluations were performed using FloJo software. […]
(§39) indicated cases the geometrical mean f luorescence was recorded. […]
(§40) which half-maximum binding intensity was reached (KD) was calculated using Origin 9.0 […]

E0771 = settings: Table S1; mouse; flow cytometry, 1 µM biotinylated peptide, 2 mM MnCl2, on ice
Description: as §26, §27, §28, §29, §30, §31, §32, §33, §34, §35, §36, §37, §38, §39, §40

4T1 = settings: Table S1; mouse; flow cytometry, 1 µM biotinylated peptide, 2 mM MnCl2, on ice
Description: as §26, §27, §28, §29, §30, §31, §32, §33, §34, §35, §36, §37, §38, §39, §40

PC-3 or A431 cells = settings: 37 °C, streptavidin staining, flow cytometry
Description: washed as described above and then re-suspended in Eagle’s minimum essential medium
incubated on ice or at 37°C. At different time points after washing 50 µl samples were taken
and added to 50 µl of Streptavidin- PerCP-Cy5.5 (diluted 1:200), incubated on ice f or 15 min,
washed with PBS, and analyzed in PBS with Hoechst solution. Fluorescent signals were
plotted against time between washing and streptavidin addition.
over time after incubation on ice and at 37°C.
labeled streptavidin as described previously f or flow cytometry assays.

human leukocytes = test: Chemotaxis assay; format: cell-based; settings: compared with the non-PEGylated effector
Description: (§1) Human leukocytes were re-suspended in Hank ’s Buffered Saline Solution (HBSS, without
(§2) Ca2+, Mg 2+) with 10 mM Hepes pH 7.3 and 0.3% BSA at 10^7 cells/ml. Cells were pre-warmed
(§3) at 37°C for 20 min. After adding the effector dilutions in the lower compartment of 24-well plates
(§4) (800 µl/well), a Millicell culture plate insert with 5 µm pore size was placed in each well, f ollowed
(§5) by immediate addition of 200 µl (2 million) leuk ocytes. In one well, the cells were added without
(§6) a f ilter insert, allowing determination of the input number. The plate was incubated at 37°C and
(§7) 5% CO2 f or 45 min. 5 mM EDTA solution was added and the plate was incubated f or another
(§8) 10 min at 37 °C. […]
Phorbol
(§9) 12- m yr ist oyl 13-acetate (P MA , 3 µg/ml) was used as a positive control. All samples were f ixed
(§10) in 1% formaldehyde Hoechst 33258 solution (0.5 µg/ml) was added and cells were k ept on ice
(§11) until analysis using a FACS Canto system. After gating for live cells and granulocytes (human
(§12) cells) or non- lymphocytes (murine cells) in the FSC/SSC plot, rhodamine-positive cells were
(§13) identif ied in a PE/SSC plot, using an unstimulated sample as a reference.
(§14) Human monocytes, after an overnight pre- culture, were incubated f or 6 more hours in 1 ml
(§15) RPMI+10% FCS containing 100 nM F2- 2PEG, 0.1 ng/ml LPS (Sigma- Aldrich), or no stimulus.
(§16) All experiments were performed in duplicates. […]

human granulocytes = test: Oxidative burst (dihydro-rhodamine oxidation) assay; format: cell-based; settings: compared with the non-PEGylated effector
Description: Activation of the oxidative burst (phagocyte NADPH oxidase) was measured using a
dihydrorhodamine (DHR, Molecular Probes) oxidation assay, based on a method described
previously1. In brief, 200 µl samples of human, murine or guinea pig leukocytes (1.25x 106
cells/ml in HHBS + 10 mM Hepes, pH 7.3, 0.3% BSA and 5 mM EDTA) were loaded with DHR
and catalase (Sigma-Aldrich) and cytochalasin B (Sigma-Aldrich) were added. Cells were pre-
incubated at 37°C for 10 min followed by the addition of 50 µl of effector dilutions (5x the
intended concentration) in the same buffer and another 15 min of incubation at 37°C. Phorbol
as §9, §10, §11, §12, §13, §14, §15, §16

mice = test: Immune activation assays (Figure S2C,D); format: cell-based, Mouse; settings: compared with human cells
Description: as §1, §2, §3, §4, §5, §6, §7, §8
(§17) determined using a Neubauer chamber, or the numbers of transmigrated monocytes ,
(§18) granulocytes and lymphocytes were determined by flow cytometry (discriminating c e ll […]
(§19) 37°C and 5% CO2. Macrophages on the bottom side of the f ilter were counted. […]
(§20) J software, means and standard deviations were calculated and presented as absolute […]
(§21) Activation of the oxidative burst (phagocyte NADPH oxidase) was measured using a […]
(§22) 150 µl were stored at - 80 °C until cytokine levels were measured with commercially available
(§23) ELISA kits (Ready-set-go system, eBiosciences). […]
(§24) were measured and calculated based on the standards included wit hin the ELISA kits and as […]
(§25) analysis. Measured cytok ine levels were normalized to 1 (the average of the two unstimulated

guinea pigs = test: Immune activation assays (Figure S2C,D); format: cell-based, Guinea pig; settings: compared with human cells
Description: as §1, §2, §3, §4, §5, §6, §7, §8, §17, §18, §19, §20, §21, §22, §23, §24, §25

[2] = 2 mM MnCl2, 30 min on ice, streptavidin-PerCP-Cy5.5
[3] = Table S1, human, 2 mM MnCl2, on ice
[4] = human, 2 mM MnCl2, 30 min on ice, streptavidin-PerCP-Cy5.5
[5] = Table S1, mouse, 2 mM MnCl2, on ice
[6] = mouse, 2 mM MnCl2, 30 min on ice, streptavidin-PerCP-Cy5.5

NC(=O)C[C@@H]1NC(=O)[C@@H]2C[C@@H](O)CN2C(=O)CNC(=O)[C@H](Cc2ccc(O)c([N+](=O)[O-])c2)NC(=O)CNC(=O)[C@@H](CC(=O)O)NC(=O)[C@H](N)CSSC[C@H](C(=O)O)NC1=O [B9] (H-[dC][dD]G[Tyr(3-NO2)]G[Hyp]N[dC]-OH; disulfide 1-8)
competes: displacement of anti-CD49c-PE conjugate (integrin α3)

CC[C@H](C)[C@H](NC(=O)[C@H](CCSC)NC(=O)CCCC[C@@H]1SC[C@@H]2NC(=O)N[C@@H]21)C(=O)N[C@@H](Cc1ccccc1)C(=O)N[C@@H](CC(C)C)C(=O)NCC(=O)NCC(=O)N[C@@H](CCCCNC(=O)CCOCCOCCOCCOCCOCCOCCOCCOCCOCCOCCOCCOCCOCCOCCOCCOCCOCCOCCOCCOCCOCCOCCOCCOCCOCCOCCOCCOCCNC(=O)[C@H]1CSSC[C@@H](N)C(=O)N[C@H](CC(=O)O)C(=O)NCC(=O)N[C@@H](Cc2ccc(O)c([N+](=O)[O-])c2)C(=O)NCC(=O)N2C[C@H](O)C[C@H]2C(=O)N[C@@H](CC(N)=O)C(=O)N1)C(=O)N[C@@H](CCCCNC(=O)CCOCCOCCOCCOCCOCCOCCOCCOCCOCCOCCOCCOCCOCCOCCOCCOCCOCCOCCOCCOCCOCCOCCOCCOCCOCCOCCOCCOCCNC(=O)[C@H]1CSSC[C@@H](N)C(=O)N[C@H](CC(=O)O)C(=O)NCC(=O)N[C@@H](Cc2ccc(O)c([N+](=O)[O-])c2)C(=O)NCC(=O)N2C[C@H](O)C[C@H]2C(=O)N[C@@H](CC(N)=O)C(=O)N1)C(=O)O [Biotin-Y9] (I: H-[dC][dD]G[Tyr(3-NO2)]G[Hyp]N[dC][PEG28] / II: H-[dC][dD]G[Tyr(3-NO2)]G[Hyp]N[dC][PEG28] / III: Biotin-MIFLGGKK-OH; disulfide I:1-I:8, II:1-II:8; amide I:C-III:7, II:C-III:8)
+/-: binding to macrophages 7 days [1, 3]
−: binding to K562 (K562; [2]) | binding to primary lymphocytes (primary lymphocytes; [4]) | binding to primary monocytes (primary monocytes; [4]) | binding to primary granulocytes (primary granulocytes; [4]) | binding to primary leukocytes (primary leukocytes; [6]) | binding to primary macrophages 7d (primary macrophages 7d; [6])
+/−: binding to primary macrophages 7 days [1, 4]
++: binding to A431 (A431; [2]) | binding to A431 (A431; [3]) | binding to PC-3 (PC-3; [2]) | binding to PC-3 (PC-3; [3]) | binding to HUVEC (HUVEC; [2]) | binding to HUVEC (HUVEC; [3]) | binding to GPC-16 (GPC-16; Table S1, guinea pig, 2 mM MnCl2, on ice) | binding to GPC-16 (GPC-16; guinea pig, 2 mM MnCl2, 30 min on ice, streptavidin-PerCP-Cy5.5) | binding to U-87MG (U-87MG) | binding to MDA-MB-231 (MDA-MB-231) | binding to HT-29 (HT-29) | binding to HeLa (HeLa) | binding to 4T1 (4T1)
+: binding to NIH-3T3 (NIH-3T3; Table S1, 2 mM MnCl2, on ice) | binding to NIH-3T3 (NIH-3T3; [2]) | binding to E0771 (E0771)
-: binding to K562 (K562; [3]) | binding to fresh lymphocytes (primary lymphocytes; [3]) | binding to fresh monocytes (primary monocytes; [3]) | binding to fresh granulocytes (primary granulocytes; [3]) | binding to leukocytes (primary leukocytes; [5]) | binding to macrophages 7d (primary macrophages 7d; [5]) | binding to H MC-1 (H MC-1) | binding to L-929 (L-929)
at least 15 minutes: t1/2 on cell membranes (PC-3 or A431 cells)

CSCC[C@H](NC=O)C(=O)N[C@@H](CC(C)C)C(=O)N[C@@H](Cc1ccccc1)C(=O)NCC(=O)NCC(=O)N[C@@H](CCCCNC(=O)CCOCCOCCOCCOCCOCCOCCOCCOCCOCCOCCOCCOCCOCCOCCOCCOCCOCCOCCOCCOCCOCCOCCOCCOCCOCCOCCOCCOCCN)C(=O)N[C@@H](CCCCNC(=O)CCOCCOCCOCCOCCOCCOCCOCCOCCOCCOCCOCCOCCOCCOCCOCCOCCOCCOCCOCCOCCOCCOCCOCCOCCOCCOCCOCCOCCN)C(=O)O [F1-2PEG] (For-MLFGGK(PEG28)K(PEG28)-OH)
less potent immune activators: immune activation in mice (mice) | immune activation in guinea pigs (guinea pigs)
two: loss of potency to induce chemotaxis when linked to the PEG chains (human leukocytes) | loss of potency for neutrophil activation (superoxide production) when linked to the PEG chains (human granulocytes)
